Measured values reported in ChEMBL document CHEMBL1201862, “PubChem BioAssay data set” (2004).
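Dose response: 5 concentrations. Exposure: 48 h. Format: 96-well plates. Endpoint: linear interpolation; highest concentration if not reached. Abbreviation: GI50, concentration required for 50% inhibition of growth.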 The source made the active and inactive calls. No stated cut-off is given here; in the data, active = GI50 up to about 1.1 µM and inactive = higher.

What was measured:
Assay in all cases: NCI-60 cell line screen, 48 h
786-0 = test system: 786-0
CAKI-1 = test system: CAKI-1
DU-145 = test system: DU-145
HCT-116 = test system: HCT-116
HCT-15 = test system: HCT-15
Hs-578T = test system: Hs-578T
IGROV-1 = test system: IGROV-1
LOX IMVI = test system: LOX IMVI
M14 = test system: M14
MDA-MB-435 = test system: MDA-MB-435
Malme-3M = test system: Malme-3M
NCI-H522 = test system: NCI-H522
OVCAR-3 = test system: OVCAR-3
OVCAR-8 = test system: OVCAR-8
PC-3 = test system: PC-3
RXF 393 = test system: RXF 393
SF-295 = test system: SF-295
SNB-19 = test system: SNB-19
T47D = test system: T47D
UACC-62 = test system: UACC-62

Compound | GI50 (786-0) | GI50 (CAKI-1) | GI50 (DU-145) | GI50 (HCT-116) | GI50 (HCT-15) | GI50 (Hs-578T) | GI50 (IGROV-1) | GI50 (LOX IMVI) | GI50 (M14) | GI50 (MDA-MB-435) | GI50 (Malme-3M) | GI50 (NCI-H522) | GI50 (OVCAR-3) | GI50 (OVCAR-8) | GI50 (PC-3) | GI50 (RXF 393) | GI50 (SF-295) | GI50 (SNB-19) | GI50 (T47D) | GI50 (UACC-62)
CCc1nc(N)nc(N)c1-c1ccc(N2CCNCC2)c([N+](=O)[O-])c1 | 5.2 µM (inactive) | 64.3 µM (inactive) | 29.2 µM (inactive) | 1.77 µM (inactive) | 35.7 µM | 18.5 µM (inactive) | 7.55 µM (inactive) | 3.48 µM (inactive) | 7.08 µM (inactive) | 4.27 µM (inactive) | 15.5 µM (inactive) | 24.4 µM (inactive) | 35.3 µM (inactive) | 6.7 µM (inactive) | 5.28 µM (inactive) | 24.5 µM (inactive) | 7.96 µM (inactive) | 41.5 µM (inactive) | 58.5 µM (inactive) | 6.08 µM (inactive)
Cc1cn([C@H]2C[C@@H](N3C(=O)c4ccccc4C3=O)[C@@H](CO[Si](C)(C)C(C)(C)C)O2)c(=O)[nH]c1=O | 26.9 µM (inactive) | 53.3 µM (inactive) | > 100 µM (inactive) | 49.2 µM (inactive) | > 100 µM | 21.2 µM (inactive) | 55 µM (inactive) | > 100 µM (inactive) | > 100 µM (inactive) | > 100 µM (inactive) | 87.3 µM (inactive) | 50.4 µM (inactive) | > 100 µM (inactive) | 32.5 µM (inactive) | > 100 µM (inactive) | 19.7 µM (inactive) | 37 µM (inactive) | 29.3 µM (inactive) | > 100 µM (inactive) | 23.8 µM (inactive)
COc1cc(/C=C/C(=N\NC(=S)NN)c2sc(NNC(C)=O)nc2C)ccc1O | > 100 µM (inactive) | > 100 µM (inactive) | > 100 µM (inactive) | > 100 µM (inactive) | > 100 µM | > 100 µM (inactive) | > 100 µM (inactive) | > 100 µM (inactive) | > 100 µM (inactive) | > 100 µM (inactive) | > 100 µM (inactive) | > 100 µM (inactive) | > 100 µM (inactive) | > 100 µM (inactive) | > 100 µM (inactive) | > 100 µM (inactive) | > 100 µM (inactive) | > 100 µM (inactive) | > 100 µM (inactive) | > 100 µM (inactive)
COC(=O)c1sc2c(c1C(=O)OC)/C(=N/C(C)(C)C)S/C2=N\C(C)(C)C | 15 µM (inactive) | 17.2 µM (inactive) | 15.5 µM (inactive) | 15.6 µM (inactive) | 17.2 µM | 25.7 µM (inactive) | 19.6 µM (inactive) | 19.5 µM (inactive) | 16.7 µM (inactive) | 18.4 µM (inactive) | 20.7 µM (inactive) | 18.5 µM (inactive) | 20.3 µM (inactive) | 19.5 µM (inactive) | 19.1 µM (inactive) | 4.02 µM (inactive) | 19.2 µM (inactive) | 17.8 µM (inactive) | 12.2 µM (inactive) | 17 µM (inactive)
Cc1c(Cl)ccc2c1NC(=O)C2(O)CC(=O)c1ccc(Cl)cc1Cl (stereo not given) | 27.2 µM (inactive) | > 28.7 µM (inactive) | > 50 µM (inactive) | > 50 µM (inactive) | > 50 µM | 12.9 µM (inactive) | > 50 µM (inactive) | > 50 µM (inactive) | > 50 µM (inactive) | > 50 µM (inactive) | > 47.9 µM (inactive) | > 50 µM (inactive) | > 46.7 µM (inactive) | > 50 µM (inactive) | > 50 µM (inactive) | 20.1 µM (inactive) | > 50 µM (inactive) | > 50 µM (inactive) | > 50 µM (inactive) | > 50 µM (inactive)
